In ChEMBL document CHEMBL5506066, “Potency-Enhanced Peptidomimetic VHL Ligands with Improved Oral Bioavailability” (J Med Chem, 2024):
pKd: −log10 of the molar value.

Key:
[1] = target: T1, von Hippel-Lindau disease tumor suppressor (Homo sapiens, UniProt P40337)
[2] = target: T1, von Hippel-Lindau disease tumor suppressor; assay: biochemical
Description: Binding affinity to VHL (unknown origin)-NanoLuc fusion protein expressed in HEK293 cells assessed as apparent dissociation constant incubated for 30 mins in presence of digitonin by NanoBRET assay

T1 sequence (P40337 whole entry): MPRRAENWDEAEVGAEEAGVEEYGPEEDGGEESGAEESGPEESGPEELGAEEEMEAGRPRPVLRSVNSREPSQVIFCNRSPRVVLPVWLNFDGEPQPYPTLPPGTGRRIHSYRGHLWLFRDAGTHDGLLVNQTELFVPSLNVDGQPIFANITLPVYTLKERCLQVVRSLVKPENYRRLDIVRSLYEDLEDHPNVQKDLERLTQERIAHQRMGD

Row | Compound | pKd [1] | pKd [2]
1 | CC(=O)N[C@H](C(=O)N1C[C@H](O)C[C@H]1C(=O)N[C@H](Cc1ccc(-c2ccccc2)cc1)C(N)=O)C(C)(C)c1ccccc1 | 5.34 | 5.51
2 | CC(=O)N[C@]1(C(=O)N2C[C@H](O)C[C@H]2C(=O)N[C@H](Cc2ccc(-c3ccccc3)cc2)C(N)=O)CC1(C)C | < 4.24 | < 4.29
3 | Cc1cnn([C@H](C(=O)N2C[C@H](O)C[C@H]2C(=O)N[C@H](Cc2ccc(-c3ccccc3)cc2)C(N)=O)C(C)C)c1 | 4.60 | 4.73
4 | CC(=O)N[C@H](C(=O)N1C[C@H](O)C[C@H]1C(=O)N[C@H](Cc1ccccc1)C(N)=O)C(C)(C)C | < 4.24 | < 4.29
5 | CC(=O)N[C@H](C(=O)N1C[C@H](O)C[C@H]1C(=O)N[C@H](Cc1ccc(I)cc1)C(N)=O)C(C)(C)C | 5.21 | 5.59
6 | CC(=O)NC1(C(=O)N2C[C@H](O)C[C@H]2C(=O)N[C@H](Cc2ccc(-c3ccccc3)cc2)C(N)=O)CCC1 | < 4.24 | < 4.29
7 | CC(=O)N[C@H](C(=O)N1C[C@H](O)C[C@H]1C(=O)N[C@H](Cc1ccc(-c2ccccc2)cc1)C(N)=O)C(c1ccccc1)c1ccccc1 | < 4.24 | 4.33
8 | Cc1ccc(CC(=O)N2C[C@H](O)C[C@H]2C(=O)N[C@H](Cc2ccc(-c3ccccc3)cc2)C(N)=O)cn1 | < 4.24 | < 4.29
9 | CC(=O)N[C@H](C(=O)N1C[C@H](O)C[C@H]1C(=O)N[C@H](Cc1ccc(C(C)(C)C)cc1)C(N)=O)C(C)(C)C | < 4.24 | < 4.29
10 | NC(=O)[C@@H](Cc1ccc(-c2ccccc2)cc1)NC(=O)[C@@H]1C[C@@H](O)CN1C(=O)Cc1ccccn1 | < 4.24 | < 4.29
11 | CC(=O)N[C@H](C(=O)N1C[C@H](O)C[C@H]1C(=O)N[C@H](Cc1ccc(-c2ccccc2F)cc1)C(N)=O)C(C)(C)C | 5.36 | 5.57
12 | Cc1cc(CC(=O)N2C[C@H](O)C[C@H]2C(=O)N[C@H](Cc2ccc(-c3ccccc3)cc2)C(N)=O)on1 | 4.33 | 4.61
13 | Cc1cn([C@H](C(=O)N2C[C@H](O)C[C@H]2C(=O)N[C@H](Cc2ccc(-c3ccccc3)cc2)C(N)=O)C(C)C)cn1 | < 4.24 | 4.31
14 | COc1ccccc1-c1ccc(C[C@@H](NC(=O)[C@@H]2C[C@@H](O)CN2C(=O)[C@@H](NC(C)=O)C(C)(C)C)C(N)=O)cc1 | 4.91 | 5.37
15 | CC(=O)NC1(C(=O)N2C[C@H](O)C[C@H]2C(=O)N[C@H](Cc2ccc(-c3ccccc3)cc2)C(N)=O)CC1 | < 4.24 | < 4.29
16 | C=CC(C)(C)[C@@H](C(=O)N1C[C@H](O)C[C@H]1C(=O)N[C@H](Cc1ccc(-c2ccccc2)cc1)C(N)=O)n1cc(C2CC2)nn1 | 7.20 | 7.08
17 | NC(=O)[C@@H](Cc1ccc(-c2ccccc2)cc1)NC(=O)[C@@H]1C[C@@H](O)CN1C(=O)Cc1cccnn1 | < 4.24 | < 4.29
18 | CC(=O)N1CCCC[C@H]1C(=O)N1C[C@H](O)C[C@H]1C(=O)N[C@H](Cc1ccc(-c2ccccc2)cc1)C(N)=O | 4.98 | 5.31
19 | NC(=O)[C@@H](Cc1ccc(-c2ccccc2)cc1)NC(=O)[C@@H]1C[C@@H](O)CN1C(=O)Cc1ccoc1 | < 4.24 | < 4.29
20 | CC(=O)N[C@H](C(=O)N1C[C@H](O)C[C@H]1C(=O)N[C@H](Cc1ccc(-c2ccccc2)cc1)C(N)=O)C1CCNCC1 | < 4.24 | 4.94

Row | Compound | pKd [1] | pKd [2]
21 | CSC[C@H](NC(C)=O)C(=O)N1C[C@H](O)C[C@H]1C(=O)N[C@H](Cc1ccc(-c2ccccc2)cc1)C(N)=O | 4.33 | 4.73
22 | CC(=O)N1CC[C@H]1C(=O)N1C[C@H](O)C[C@H]1C(=O)N[C@H](Cc1ccc(-c2ccccc2)cc1)C(N)=O | 4.24 | 4.32
23 | CC(=O)N[C@H](C(=O)N1C[C@H](O)C[C@H]1C(=O)N[C@H](Cc1ccc(C#N)cc1)C(N)=O)C(C)(C)C | < 4.24 | 5.05
24 | CC(=O)N[C@@]1(C(=O)N2C[C@H](O)C[C@H]2C(=O)N[C@H](Cc2ccc(-c3ccccc3)cc2)C(N)=O)CC1(C)C | < 4.24 | < 4.29
25 | CC(=O)NCC(=O)N1C[C@H](O)C[C@H]1C(=O)N[C@H](Cc1ccc(-c2ccccc2)cc1)C(N)=O | < 4.24 | < 4.29
26 | CC(=O)N[C@@H](CC1CC1)C(=O)N1C[C@H](O)C[C@H]1C(=O)N[C@H](Cc1ccc(-c2ccccc2)cc1)C(N)=O | 4.51 | 4.89
27 | CC(=O)N[C@H](C(=O)N1C[C@H](O)C[C@H]1C(=O)N[C@H](Cc1ccc(-c2cccc(Cl)n2)cc1)C(N)=O)C(C)(C)C | < 4.24 | 5.38
28 | CC(C)[C@@H](C(=O)N1C[C@H](O)C[C@H]1C(=O)N[C@H](Cc1ccc(-c2ccccc2)cc1)C(N)=O)c1cccnc1 | 4.61 | 4.49
29 | CC(=O)N[C@H](C(=O)N1C[C@H](O)C[C@H]1C(=O)N[C@H](Cc1ccc(-c2ccccc2)cc1)C(N)=O)C1CCOCC1 | 4.75 | 5.54
30 | CC(C)(C)[C@@H](C(=O)N1C[C@H](O)C[C@H]1C(=O)N[C@H](Cc1ccc(-c2ccccc2)cc1)C(N)=O)n1cc(C(=O)O)nn1 | 4.40 | 6.51
31 | CC(=O)N[C@H](C(=O)N1C[C@H](O)C[C@H]1C(=O)NC(C(N)=O)c1ccc(-c2scnc2C)cc1)C(C)(C)C (mixture of isomers) | 5.29 | 6.30
32 | CC(C)(C)[C@@H](C(=O)N1C[C@H](O)C[C@H]1C(=O)N[C@H](Cc1ccc(-c2ccccc2)cc1)C(N)=O)n1cc(C2CC2)nn1 | 7.07 | 7.15
33 | CC(=O)N[C@H](C(=O)N1C[C@H](O)C[C@H]1C(=O)N[C@H](Cc1ccc(-c2ccccc2)cc1)C(N)=O)C1(C)CC1 | 4.81 | 5.41
34 | NC(=O)[C@@H](Cc1ccc(-c2ccccc2)cc1)NC(=O)[C@@H]1C[C@@H](O)CN1C(=O)[C@H](C1CCC1)n1cc(C2CC2)nn1 | 6.96 | 7.00
35 | NC(=O)[C@@H](Cc1ccc(-c2ccccc2)cc1)NC(=O)[C@@H]1C[C@@H](O)CN1C(=O)Cn1ccnn1 | < 4.24 | < 4.29
36 | NC(=O)[C@@H](Cc1ccc(-c2ccccc2)cc1)NC(=O)[C@@H]1C[C@@H](O)CN1C(=O)[C@@H](n1cc(C2CC2)nn1)C12CC3CC(CC(C3)C1)C2 | 7.17 | 7.08
37 | Cc1cc(C2(C(=O)N3C[C@H](O)C[C@H]3C(=O)N[C@H](Cc3ccc(-c4ccccc4)cc3)C(N)=O)CC2)on1 | < 4.24 | < 4.29
38 | CC(=O)NC(C(=O)N1C[C@H](O)C[C@H]1C(=O)N[C@H](Cc1ccc(-c2ccccc2)cc1)C(N)=O)C12CC(C(F)(F)F)(C1)C2 (stereo partly drawn) | 5.18 | 5.62
39 | CC(=O)N[C@H](C(=O)N1C[C@H](O)C[C@H]1C(=O)N[C@H](C(N)=O)c1ccc(-c2scnc2C)cc1)C(C)(C)C | 4.85 | 5.67
40 | CC(C)(C)[C@H](N=[N+]=[N-])C(=O)N1C[C@H](O)C[C@H]1C(=O)N[C@H](Cc1ccc(-c2ccccc2)cc1)C(N)=O | 4.46 | 4.62

Row | Compound | pKd [1] | pKd [2]
41 | CC(=O)N[C@@H](Cc1cscn1)C(=O)N1C[C@H](O)C[C@H]1C(=O)N[C@H](Cc1ccc(-c2ccccc2)cc1)C(N)=O | < 4.24 | 4.85
42 | CC(=O)N[C@@H](CCCN)C(=O)N1C[C@H](O)C[C@H]1C(=O)N[C@H](Cc1ccc(-c2ccccc2)cc1)C(N)=O | < 4.24 | 4.76
43 | Cc1ncsc1-c1ccc(CNC(=O)[C@@H]2C[C@@H](O)CN2C(=O)[C@@H](n2cc(C3CC3)nn2)C(C)(C)C)cc1 | 8.20 | 8.19
44 | CC(=O)N[C@H](C(=O)N1C[C@H](O)C[C@H]1C(=O)N[C@H](Cc1ccc(-c2cccnc2)cc1)C(N)=O)C(C)(C)C | 4.34 | 5.57
45 | CC(C)(C)[C@@H](C(=O)N1C[C@H](O)C[C@H]1C(=O)N[C@H](Cc1ccc(-c2ccccc2)cc1)C(N)=O)n1cc(C(N)=O)nn1 | 5.72 | 6.68
46 | NC(=O)[C@@H](Cc1ccc(-c2ccccc2)cc1)NC(=O)[C@@H]1C[C@@H](O)CN1C(=O)Cc1cccnc1 | < 4.24 | < 4.29
47 | COc1ccc(-c2ccc(C[C@@H](NC(=O)[C@@H]3C[C@@H](O)CN3C(=O)[C@@H](NC(C)=O)C(C)(C)C)C(N)=O)cc2)cc1 | < 4.24 | 4.51
48 | CC(=O)N1CCC[C@H]1C(=O)N1C[C@H](O)C[C@H]1C(=O)N[C@H](Cc1ccc(-c2ccccc2)cc1)C(N)=O | < 4.24 | 4.90
49 | CC(=O)N[C@@H](Cc1ccccc1)C(=O)N1C[C@H](O)C[C@H]1C(=O)N[C@H](Cc1ccc(-c2ccccc2)cc1)C(N)=O | < 4.24 | 4.74
50 | COc1ccc(-c2ccc(C[C@@H](NC(=O)[C@@H]3C[C@@H](O)CN3C(=O)[C@@H](NC(C)=O)C(C)(C)C)C(N)=O)cc2)cc1F | < 4.24 | 4.67
51 | Cc1ncsc1-c1ccc([C@H](C)NC(=O)[C@@H]2C[C@@H](O)CN2C(=O)[C@@H](n2cc(C3CC3)nn2)C(C)(C)C)cc1 | 8.48 | 8.41
52 | CC(=O)NC1(C(=O)N2C[C@H](O)C[C@H]2C(=O)N[C@H](Cc2ccc(-c3ccccc3)cc2)C(N)=O)CCCCC1 | < 4.24 | < 4.29
53 | CC[C@H](C)[C@@H](C(=O)N1C[C@H](O)C[C@H]1C(=O)N[C@H](Cc1ccc(-c2ccccc2)cc1)C(N)=O)n1cc(C2CC2)nn1 | 7.13 | 7.06
54 | CC(=O)N[C@H](C(=O)N1C[C@H](O)C[C@H]1C(=O)N[C@H](Cc1ccc(-c2ccccc2Cl)cc1)C(N)=O)C(C)(C)C | 5.26 | 5.74
55 | Cc1cn(CC(=O)N2C[C@H](O)C[C@H]2C(=O)N[C@H](Cc2ccc(-c3ccccc3)cc2)C(N)=O)nn1 | < 4.24 | < 4.29
56 | NC(=O)[C@@H](Cc1ccc(-c2ccccc2)cc1)NC(=O)[C@@H]1C[C@@H](O)CN1C(=O)Cc1ccon1 | < 4.24 | < 4.29
57 | CC(=O)N[C@H](C(=O)N1C[C@H](O)C[C@H]1C(=O)N[C@@H](C(N)=O)c1ccc(-c2scnc2C)cc1)C(C)(C)C | 5.70 | 6.68
58 | CC(C)(C)n1nnc(CC(=O)N2C[C@H](O)C[C@H]2C(=O)N[C@H](Cc2ccc(-c3ccccc3)cc2)C(N)=O)n1 | < 4.24 | 4.31
59 | CSCC[C@H](NC(C)=O)C(=O)N1C[C@H](O)C[C@H]1C(=O)N[C@H](Cc1ccc(-c2ccccc2)cc1)C(N)=O | 4.58 | 5.05
